Patent publication US20240043416A1, “SALT AND CRYSTAL FORM OF HA INHIBITOR COMPOUND” (SICHUAN HAISCO PHARMACEUTICAL CO., LTD., priority 2021, published 2024)
Structures can show the parent of a compound that is named as a salt. One block for each compound: values may come before it.

Key:
[1] = Characterization of salt form of compound A (properties of various salts, Table 8); type: physicochemical; details: determined by the height of the strongest peak in XRPD
in vivo = details: male, SD, rat
Protocol: Test objective: by giving test compounds to SD rats via single-dose intravenous and intragastric administration and measuring the concentrations of the test compounds in plasma of rats, the pharmacokinetic characteristics and bioavailability of the test compounds in rats were evaluated.
Test animal: male SD rats, about 220 g, 6-8 weeks old, 6 rats/compound, purchased from Chengdu Ddossy Experimental Animals Co., Ltd.
Test method: on the day of the test, 6 SD rats were randomly grouped according to their body weight; the animals were fasted with water available for 12 to 14 h one day before the administration, and were fed 4 h after the administration; and the administration was performed according to Table 10.
Before and after the administration, 0.1 mL of blood samples were drawn from the orbits of the animals under isoflurane anaesthesia, and placed in an EDTAK2 centrifuge tube. Centrifugation was performed at 5000 rpm at 4° C. for 10 min, and plasma was collected.
Time points for sample collection in G1 and G2 groups comprise 0, 5 min, 15 min, 30 min, 1 h, 2 h, 4 h, 6 h, 8 h and 24 h.
Before analysis and detection, all samples were stored at −80° C.
30 μL of each of plasma samples, standard curve samples and quality control samples was taken, and 200 μL of acetonitrile solution containing an internal standard was added. The resulting mixture was homogeneously mixed by vortex and centrifuged at 4° C. at 12000 rpm for 10 min. 170 μL of the supernatant was taken and placed to a 96-well plate, and LC-MS/MS analysis was performed, wherein the sample size was 0.2 μL.
The main pharmacokinetic parameters were analysed by a non-compartmental model using WinNonlin 8.0 software.

Structure (SMILES): C1=Cc2cccc(OC[C@H]3CNCCO3)c2C1.O=S(=O)(O)c1ccccc1 [Benzenesulfonate]
Crystallinity [1]: Relatively

bioavailability (in vivo): 26.1 ± 6.2%
AUC (in vivo; iv, 2 mg/kg): 2010 ± 396 ng·h/mL
Cmax (in vivo; iv, 2 mg/kg): 1460 ± 134 ng/mL
half-life (in vivo; iv, 2 mg/kg): 0.897 ± 0.013 h
AUC (in vivo; po, 10 mg/kg): 2610 ± 620 ng·h/mL
Cmax (in vivo; po, 10 mg/kg): 715 ± 127 ng/mL
Tmax (in vivo; po, 10 mg/kg): 1.67 ± 0.58 h
half-life (in vivo; po, 10 mg/kg): 1.04 ± 0.099 h
Structure (SMILES): Cc1nnn([C@@H](c2ccccc2)C2CCN(C(=O)c3cc(-c4nc5cc(NC(=O)[C@@H]6C[C@@H]6F)ccc5o4)ccn3)CC2)n1 [Compound A, (1S,2S)-2-fluoro-N-(2-(2-(4-((R)-(5-methyl-2H-tetrazol-2-yl)(phenyl)methyl)piperidine-1-carbonyl)pyridin-4-yl)benzo[d]oxazol-5-yl)cyclopropane-1-carboxamide]

Structure (SMILES): O=S(=O)(O)c1ccc2ccccc2c1 [Example 2-naphthalenesulfonate, 2-naphthalenesulfonate]
Crystallinity [1]: High

Crystallinity [1]: High
Structure (SMILES): Br [Hydrobromide]
